“And” between values parts separate entries of the source, which are not always exact repeats. Identical values can stand only once.
Tested on: human PBMCs
Assay: LPS-induced cytokine and chemokine levels in human PBMC supernatant (Luminex, ELISA)
Format: cell-based
Conditions: for TNF-α [pg/mL], Mean / TNF-α [pg/mL], individual value / GM-CSF % reduction / GM-CSF [pg/mL], Mean / GM-CSF [pg/mL], individual value / IL-1β % reduction / IL-1β [pg/mL], Mean / IL-1β [pg/mL], individual value / IL-6 % reduction / IL-6 [pg/mL], Mean / IL-6 [pg/mL], individual value / IL-8 % reduction / IL-8 [pg/mL], Mean / IL-8 [pg/mL], individual value / TNF-α % reduction: LPS-stimulated human PBMC supernatant

CC[C@H]1OC(=O)[C@H](C)[C@@H](O[C@H]2C[C@@](C)(OC)[C@@H](O)[C@H](C)O2)[C@H](C)[C@@H](O[C@@H]2O[C@H](C)C[C@H](N(C)C)[C@H]2O)[C@](C)(O)C[C@@H](C)CN(C)[C@H](C)[C@@H](O)[C@]1(C)O [Azithromycin]
TNF-α [pg/mL], Mean (0.03 µM): 11102 pg/mL | TNF-α [pg/mL], individual value (0.03 µM): 10517 pg/mL and 11687 pg/mL | GM-CSF % reduction (0.1 µM): 8% | GM-CSF [pg/mL], Mean (0.1 µM): 606 pg/mL | GM-CSF [pg/mL], individual value (0.1 µM): 616 pg/mL and 597 pg/mL | IL-1β % reduction (0.1 µM): 7% | IL-1β [pg/mL], Mean (0.1 µM): 11909 pg/mL | IL-1β [pg/mL], individual value (0.1 µM): 12184 pg/mL and 11633 pg/mL | IL-6 % reduction (0.1 µM): 10% | IL-6 [pg/mL], Mean (0.1 µM): 31536 pg/mL | IL-6 [pg/mL], individual value (0.1 µM): 30929 pg/mL and 32144 pg/mL | IL-8 % reduction (0.1 µM): -3.72% | IL-8 [pg/mL], Mean (0.1 µM): 3056 pg/mL | IL-8 [pg/mL], individual value (0.1 µM): 3040 pg/mL and 3071 pg/mL | TNF-α % reduction (0.1 µM): 8% | TNF-α [pg/mL], Mean (0.1 µM): 8220 pg/mL | TNF-α [pg/mL], individual value (0.1 µM): 7335 pg/mL and 9106 pg/mL | GM-CSF % reduction (0.3 µM): 3.39% | GM-CSF [pg/mL], Mean (0.3 µM): 635 pg/mL | GM-CSF [pg/mL], individual value (0.3 µM): 650 pg/mL and 620 pg/mL | IL-1β % reduction (0.3 µM): 5% | IL-1β [pg/mL], Mean (0.3 µM): 12146 pg/mL | IL-1β [pg/mL], individual value (0.3 µM): 12820 pg/mL and 11473 pg/mL | IL-6 % reduction (0.3 µM): 8% | IL-6 [pg/mL], Mean (0.3 µM): 32119 pg/mL | IL-6 [pg/mL], individual value (0.3 µM): 32538 pg/mL and 31700 pg/mL | IL-8 % reduction (0.3 µM): -0.427% | IL-8 [pg/mL], Mean (0.3 µM): 3002 pg/mL | IL-8 [pg/mL], individual value (0.3 µM): 2940 pg/mL and 3064 pg/mL | TNF-α % reduction (0.3 µM): 8% | TNF-α [pg/mL], Mean (0.3 µM): 8210 pg/mL | TNF-α [pg/mL], individual value (0.3 µM): 7975 pg/mL and 8445 pg/mL | GM-CSF % reduction (1 µM): 6.38% | GM-CSF [pg/mL], Mean (1 µM): 616 pg/mL | GM-CSF [pg/mL], individual value (1 µM): 634 pg/mL and 597 pg/mL | IL-1β % reduction (1 µM): 4% | IL-1β [pg/mL], Mean (1 µM): 12252 pg/mL | IL-1β [pg/mL], individual value (1 µM): 12213 pg/mL and 12291 pg/mL | IL-6 % reduction (1 µM): -4.52% | IL-6 [pg/mL], Mean (1 µM): 36486 pg/mL | IL-6 [pg/mL], individual value (1 µM): 36508 pg/mL and 36463 pg/mL | IL-8 % reduction (1 µM): 0.166% | IL-8 [pg/mL], Mean (1 µM): 2992 pg/mL | IL-8 [pg/mL], individual value (1 µM): 2945 pg/mL and 3040 pg/mL | TNF-α % reduction (1 µM): -33% | TNF-α [pg/mL], Mean (1 µM): 11913 pg/mL | TNF-α [pg/mL], individual value (1 µM): 11577 pg/mL and 12250 pg/mL | GM-CSF % reduction (3 µM): -8.5% | GM-CSF [pg/mL], Mean (3 µM): 713 pg/mL | GM-CSF [pg/mL], individual value (3 µM): 735 pg/mL and 692 pg/mL | IL-1β % reduction (3 µM): -0.234% | IL-1β [pg/mL], Mean (3 µM): 12815 pg/mL | IL-1β [pg/mL], individual value (3 µM): 12810 pg/mL and 12820 pg/mL | IL-6 % reduction (3 µM): 4% | IL-6 [pg/mL], Mean (3 µM): 33458 pg/mL | IL-6 [pg/mL], individual value (3 µM): 33827 pg/mL and 33090 pg/mL | IL-8 % reduction (3 µM): -3.25% | IL-8 [pg/mL], Mean (3 µM): 3048 pg/mL | IL-8 [pg/mL], individual value (3 µM): 3040 pg/mL and 3056 pg/mL | TNF-α % reduction (3 µM): -13% | TNF-α [pg/mL], Mean (3 µM): 10076 pg/mL | TNF-α [pg/mL], individual value (3 µM): 10741 pg/mL and 9410 pg/mL | GM-CSF % reduction (10 µM): -18% | GM-CSF [pg/mL], Mean (10 µM): 778 pg/mL | GM-CSF [pg/mL], individual value (10 µM): 790 pg/mL and 767 pg/mL | IL-1β % reduction (10 µM): 6% | IL-1β [pg/mL], Mean (10 µM): 12046 pg/mL | IL-1β [pg/mL], individual value (10 µM): 12362 pg/mL and 11731 pg/mL | IL-6 % reduction (10 µM): 4.69% | IL-6 [pg/mL], Mean (10 µM): 33270 pg/mL | IL-6 [pg/mL], individual value (10 µM): 35180 pg/mL and 31360 pg/mL | IL-8 % reduction (10 µM): 7.45% | IL-8 [pg/mL], Mean (10 µM): 2874 pg/mL | IL-8 [pg/mL], individual value (10 µM): 2884 pg/mL and 2864 pg/mL | TNF-α % reduction (10 µM): -22% | TNF-α [pg/mL], Mean (10 µM): 10907 pg/mL | TNF-α [pg/mL], individual value (10 µM): 11897 pg/mL and 9917 pg/mL | GM-CSF % reduction (30 µM): -64% | GM-CSF [pg/mL], Mean (30 µM): 1076 pg/mL | GM-CSF [pg/mL], individual value (30 µM): 1120 pg/mL and 1032 pg/mL | IL-1β % reduction (30 µM): 22% | IL-1β [pg/mL], Mean (30 µM): 10027 pg/mL | IL-1β [pg/mL], individual value (30 µM): 10517 pg/mL and 9538 pg/mL | IL-6 % reduction (30 µM): 2.66% | IL-6 [pg/mL], Mean (30 µM): 33980 pg/mL | IL-6 [pg/mL], individual value (30 µM): 33792 pg/mL and 34168 pg/mL | IL-8 % reduction (30 µM): 5% | IL-8 [pg/mL], Mean (30 µM): 2917 pg/mL | IL-8 [pg/mL], individual value (30 µM): 2925 pg/mL and 2908 pg/mL | TNF-α % reduction (30 µM): -21% | TNF-α [pg/mL], Mean (30 µM): 10839 pg/mL | TNF-α [pg/mL], individual value (30 µM): 10668 pg/mL and 11009 pg/mL | GM-CSF % reduction (100 µM): -161% | GM-CSF [pg/mL], Mean (100 µM): 1715 pg/mL | GM-CSF [pg/mL], individual value (100 µM): 1713 pg/mL and 1717 pg/mL | IL-1β % reduction (100 µM): 51% | IL-1β [pg/mL], Mean (100 µM): 6242 pg/mL | IL-1β [pg/mL], individual value (100 µM): 5956 pg/mL and 6528 pg/mL | IL-6 % reduction (100 µM): 23% | IL-6 [pg/mL], Mean (100 µM): 27053 pg/mL | IL-6 [pg/mL], individual value (100 µM): 26301 pg/mL and 27804 pg/mL | IL-8 [pg/mL], Mean (100 µM): 2975 pg/mL | IL-8 [pg/mL], individual value (100 µM): 2977 pg/mL and 2972 pg/mL | TNF-α % reduction (100 µM): 17% | TNF-α [pg/mL], Mean (100 µM): 7409 pg/mL | TNF-α [pg/mL], individual value (100 µM): 6229 pg/mL and 8589 pg/mL | levels of the measured LPS-induced cytokines, chemokines, or MMP-9 in supernatants (human PBMCs, concentrations tested (100 μM not shown)): little to no reduction

Reference: article PMC8480901 (PLoS ONE, 2021)
